Entries after “also recorded” stand apart in the source; their conditions may differ. Like-named read-outs stand apart in the source and are kept apart here.
Key:
[1] = test system: WI-38 cells; experiment: MMS resistance assay; type: cell-based, human; conditions: for fold induction at 10 µM: Homo sapiens, 12 h, normalized ATP measurement; for Assay 3: MMS-resistant / Assay 5: Triple resistant: YES/NO; for Assay 3: MMS-resistant: * indicates partial; for Assay 5: Triple resistant: H2O2, cadmium and MMS
Method in brief: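 Resistance to CdCl2 or MMS stress (12 h exposure) was scored in WI-38 fibroblasts pretreated with compound at 0.25–20 μM final, five doses, technical triplicates. MMS plates had compound added 24 h before MMS, after a shift to serum-free DMEM+2% BSA. Significance came from a global variance t-test over two independent runs.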

[2] = test system: FOXO3; experiment: qPCR analysis of FOXO3-regulated genes; type: cell-based, human; conditions: for Induction of at least two of five FOXO3-regulated genes (SOD2, GADD45A, CAT, DDB1, TXNIP): WI-38; for fold induction at 10 µM: Homo sapiens; for K = Sestrin induction: score
Method in brief: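 FOXO3 target-gene expression quantified by qPCR normalised to B2M, PPIA and GAPDH, in WI-38 cells after 24 h exposure to 10 μM compound. Some runs used cells first transfected 36 h with 10 nM FOXO3 or NRF2 siRNA and replated ~24 h before dosing.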

[3] = test system: C. elegans; type: in vivo, Caenorhabditis elegans; conditions: in vivo
Description: The worms were treated with the small molecules in liquid, with H2O2 (500 μM final concentration) added on day 4 of adulthood, and scored for viability everyday
FUdR was used to block progeny production. The molecules were analyzed in 96-well plates, with 4 wells for each small molecule. Multiple control wells with DMSO (0.2% final concentration) were included. […] Day 1 adults were transferred onto mini-plates, seeded with OP50 bacteria (UV-irradiated, kanamycin-treated) and supplemented with small molecules (˜60 μM final concentration, 0.2% DMSO). Worms were scored every other day. Cumulative survival was analyzed using the STATA software (log-rank test). […] The worms were treated with the small molecules in liquid, with H2O2 (500 μM final concentration) added on day 4 of adulthood, and scored for viability every day.

[4] = Exp. 1, WI-38 cells, read-out: Exp. 1, under MMS stress treatment, at 10 uM (fold change)
[5] = Exp. 2, WI-38 cells, read-out: Exp. 2, under MMS stress treatment, at 10 uM (fold change)
[6] = score in summary of 38 core set hits
[7] = 24 h, Assay 10(m), at 10 uM, qPCR, read-out: Induction of FOXO3-regulated genes: CAT normalized fold-change
[8] = 24 h, Assay 10(m), at 10 uM, qPCR, read-out: Induction of FOXO3-regulated genes: DDB1 normalized fold-change
[9] = 24 h, Assay 10(m), at 10 uM, qPCR, read-out: Induction of FOXO3-regulated genes: SESN1 normalized fold-change
[10] = WI-38, 24 h, read-out: SESN1 expression
[11] = 10 μM, 24 hrs, WI-38 cells, qPCR, normalized to B2M, n = 4, read-out: CAT expression, normalized fold change (FOXO3-regulated gene)
[12] = 10 μM, 24 hrs, WI-38 cells, qPCR, normalized to B2M, n = 4, read-out: DDB1 expression, normalized fold change (FOXO3-regulated gene)
[13] = 10 μM, 24 hrs, WI-38 cells, qPCR, normalized to B2M, n = 4, read-out: SESN1 expression, normalized fold change (FOXO3-regulated gene)
[14] = WI-38 cells, 10 μM, 24 hrs, n=4, qPCR normalized by B2M, read-out: DDB1 Normalized fold change
[15] = WI-38 cells, 10 μM, 24 hrs, n=4, qPCR normalized by B2M, read-out: GADD45A Normalized fold change
[16] = WI-38 cells, 10 μM, 24 hrs, n=4, qPCR normalized by B2M, read-out: SESN1 Normalized fold change
[17] = fold change, qPCR, WI-38 cells, 10 μM, 24 hrs, read-out: Summary of effects on FOXO3-regulated genes: CAT
[18] = fold change, qPCR, WI-38 cells, 10 μM, 24 hrs, read-out: Summary of effects on FOXO3-regulated genes: DDB1
[19] = fold change, qPCR, WI-38 cells, 10 μM, 24 hrs, read-out: Summary of effects on FOXO3-regulated genes: SESN1
[20] = qPCR, WI-38 cells, 10 μM, n=4, 24 hrs, normalized by B2M, read-out: CAT Normalized fold change
[21] = qPCR, WI-38 cells, 10 μM, n=4, 24 hrs, normalized by B2M, read-out: SOD2 Normalized fold change
[22] = qPCR, WI-38 cells, 10 μM, n=4, 24 hrs, normalized by B2M, read-out: TXNIP Normalized fold change
[23] = 10 μM, 24 hrs, WI-38 cells, qPCR, normalized to B2M, n = 4, read-out: TXNIP expression, normalized fold change (FOXO3-regulated gene)
[24] = fold change, qPCR, WI-38 cells, 10 μM, 24 hrs, read-out: Summary of effects on FOXO3-regulated genes: TXNIP

SMILES	fold induction at 10 µM [1, 4]	fold induction at 10 µM [1, 5]	Assay 3: MMS-resistant [1]	Assay 5: Triple resistant [1]	B = MMS resistant [1, 6]	B = MMS resistant ([1]; summary score)	D = Triple resistant ([1]; summary score)	Induction of at least two of five FOXO3-regulated genes (SOD2, GADD45A, CAT, DDB1, TXNIP) ([2]; 10 μM, 24 hrs)	E = Potential FOXO3 Activation ([2]; 2-point score)	fold induction at 10 µM [2, 7]	fold induction at 10 µM [2, 14]	fold induction at 10 µM [2, 15]	fold induction at 10 µM [2, 16]	fold induction at 10 µM [2, 20]	fold induction at 10 µM [2, 21]	fold induction at 10 µM [2, 22]	K = Sestrin induction [2]	E = Potential FOXO3 Activation ([2]; summary score)	L = H2O2-resistance in worms [3]	N = H2O2-resistance in woms [3]	other results
NS(=O)(=O)c1ccc(NC(=O)c2ccc([N+](=O)[O-])o2)cc1 [Gr-1A]	0.72	2.42	YES	YES	0	1	2	significant induction; also recorded: significant, induction; also recorded: induce FOXO3-regulated genes	0	1.36	1.35	1.27	2.12	1.31	1.5	1.23	1	0	0	0	fold induction at 10 µM [2, 8]: 1.16; fold induction at 10 µM [2, 9]: 1.93; fold induction at 10 µM [2, 10]: > 1.5; fold induction at 10 µM [2, 11]: 1.31; fold induction at 10 µM [2, 12]: 1.36; fold induction at 10 µM [2, 13]: 2.12; fold induction at 10 µM [2, 17]: 1.31; fold induction at 10 µM [2, 18]: 1.36; fold induction at 10 µM [2, 19]: 2.12; H2O2-resistance assay, 1st experiment [3]: YES;
O=C(Nc1cc(C(F)(F)F)ccc1Cl)c1ccc([N+](=O)[O-])o1 [Gr-1B]	0.7	3.03	NO *	YES	0	0	0	significant induction; also recorded: significant, induction	0	1.4	1.18	0.947	1.3	1.4	1.21	1.94	0	0	0	0	fold induction at 10 µM ([2]; 24 h, Assay 10(m), at 10 uM, qPCR, read-out: Induction of FOXO3-regulated genes: TXNIP normalized fold-change): 1.52; fold induction at 10 µM [2, 11]: 1.4; fold induction at 10 µM [2, 13]: 1.3; fold induction at 10 µM [2, 23]: 1.94; fold induction at 10 µM [2, 17]: 1.4; fold induction at 10 µM [2, 19]: 1.3; fold induction at 10 µM [2, 24]: 1.94
CCc1ccccc1NC(=O)c1ccc([N+](=O)[O-])o1 [Gr-1C]	0.73	0.39	–	–	0	0	0	significant induction; also recorded: induce FOXO3-regulated genes	0	1.41	1.4	0.727	1.9	1.44	1.33	1.23	0	0	0	0	fold induction at 10 µM [2, 8]: 1.14; fold induction at 10 µM ([2]; 24 h, Assay 10(m), at 10 uM, qPCR, read-out: Induction of FOXO3-regulated genes: GADD45A normalized fold-change): 0.6; fold induction at 10 µM [2, 9]: 1.59; fold induction at 10 µM [2, 10]: > 1.5; fold induction at 10 µM [2, 11]: 1.44; fold induction at 10 µM [2, 17]: 1.44
O=C(Nc1cccc(Cl)c1)c1ccc([N+](=O)[O-])o1 [Gr-1D]	1.16	2.31	YES	YES	0	1	2	–	0	–	1.18	1.92	1.73	0.953	1.42	0.621	1	0	0	0	fold induction at 10 µM [2, 8]: 1.13; fold induction at 10 µM [2, 9]: 1.91; fold induction at 10 µM [2, 10]: > 1.5; fold induction at 10 µM [2, 12]: 1.18; fold induction at 10 µM [2, 13]: 1.73; fold induction at 10 µM [2, 23]: 0.62; fold induction at 10 µM [2, 18]: 1.18; fold induction at 10 µM [2, 19]: 1.73; fold induction at 10 µM [2, 24]: 0.62
Oc1ccccc1-c1noc(-c2ccccc2O)n1 [O27]	–	–	–	YES	0	0	0	–	0	–	–	–	–	–	–	–	1	0	–	–	–

Reference: patent US11413278B2, “Compounds and methods for promoting stress resistance” (priority 2015, dated 2022)
